The values that follow come from patent US6987100B2, “Pharmaceutical compositions for treating bone lesions in multiple myeloma” (Astellas Pharm Inc., priority 1998, dated 2006).

For series [1], the system named is mice transplanted with myeloma cells ARH-77. Description: Bone resorption inhibition test in multiple myeloma model animals (urinary deoxypyridinoline). The settings on record: 0.1 mg/kg intravenous once; urine on day 4 after administration; mice with paralysis in hind limbs; vs solvent group. Format: in vivo, C.B-17/lcr-scid Jcl mice.
Experimental: On the next day, 10^6 cells/mouse of myeloma cells ARH-77 were transplanted into the left cardiac ventricle of each animal under anesthesia with pentobarbital. […] On the day 4 after the administration, a physiological saline load (30 ml/kg po) was burdened to these mice and the urine was collected after 6 hours. Since the mice suffering from paralysis in hind limbs could hardly urinate, such an animal was subjected to abdominal section and the urine was directly collected from the bladder. Normal animals (sham-operated group), into the left cardiac ventricle of which PBS (0.1 ml/animal) was injected as a substitute for the myeloma cells, were treated in the same manner. The urinary deoxypyridinoline (Dpyr) level was measured by using a [sequence]-D kit (Amersham) and corrected with the urinary creatinine level.
In series [2] the test system is patients with multiple myeloma. The settings on record: 30 mg/day oral; cited from earlier work.
The next series has as its system murine model of myeloma. The note with it: cited from earlier work.
The test system of a further series is patients. The note with it: intravenous 90 mg/4 weeks, cited from earlier work.
Series [3] deals with human myeloma cells ARH-77. Description: Myeloma cell proliferation inhibitory test. It is filed as cell-based. The procedure:
A 5×10^4 cells/ml cell dilution of human myeloma cells […], which had been incubated in a culture flask, was prepared by using an RPMI1640 medium (containing 10% of EBS), pipetted in 1 ml portions into a 24-well plate and then incubated in a CO2 incubator at 37° C. After 6 hours, 100 μl portions of the aqueous solution of the compound A were added to give final concentrations of 0.3 to 1000 μM (three-fold serial, duplicate samples). After incubating in the CO2 incubator at 37° C. for 4 days, the viable cells were counted with the use of a Cell Counting Kit (Dojin Kagaku). By referring the value of the control prepared by adding PBS as to the cell proliferation inhibitory ratio of […], the inhibitory ratios were calculated.

Series [4] deals with mice transplanted with myeloma cells ARH-77. Description: Lumbar bone mineral density decrease test in multiple myeloma model animals. It is filed as in vivo. The procedure:
Similar to Example 1, mice suffering from paralysis in hind limbs were selected 3 weeks after the transplantation of myeloma cells. Then an aqueous solution of the compound A monohydrate (3 mg/kg) (compound A group) and the solvent alone (solvent group) were orally administered once a day for 6 days repeatedly. On the next day of the completion of the administration, a 10% formalin solution was refluxed from the left cardiac ventricle under anesthesia with pentobarbital and the lumber vertebrae was taken out. The bone mineral density in the bone tissue was measured by the DXA method. As Example 1, the normal mice (sham-operated group) were also subjected to the measurement of the bone mineral density.
Two weeks after the transplantation of the myeloma cells, the compound A was orally administered for 14 days in doses of 0.03, 0.3 and 3 mg/kg. Then the bone mineral density was measured as in the above (1) but selecting animals suffering from paralysis in hind limbs during the administration period.

In series [5] the test system is patient with multiple myeloma. Description: Clinical test 1 (multiple myeloma and bone lesions, one patient). It is filed as in vivo, human. The settings on record: for M protein (IgD): blood.
Series [6] relates to patients with multiple myeloma. The settings on record: for systemic bone salt mass, change ratio to the data before the administration: 5 patients.
Setting [7] is: 3 mg oral once a day, after 8 weeks.
Setting [8] is: 6 mg oral once a day, after 24 weeks.

Like-named read-outs stand apart in the source and are kept apart here.

Take `O=P(O)(O)C(O)(Cc1cccnc1)P(=O)(O)O` [risedronate]: the “inhibition of the increase in urinary Dpyr level (bone resorption marker)” value (shortened to “inhibition of the increase”) in series [1] is recorded as “no significant inhibition”. For the same compound, in series [2], the bone mineral density entry is “elevated bone mineral density” and the bone resorption result is “suppressed bone resorption”. In the series on murine model of myeloma, the bone destruction result is “clear reduction in bone destruction” and the “effect on tumor growth / tumor burden” value is listed as “no effect on tumor burden”.
As to `NCCC(O)(P(=O)(O)O)P(=O)(O)O` [pamidronate], the “Dpyr level relative to level before the administration” value in the series on patients (after 4 weeks) is “exceeded 80%”. Further, the “Dpyr level relative to level before the administration” value in the series on patients (week 2) is recorded as “about 60%”. For the same compound, in series [1], the “inhibition of the increase” value is on record as “no significant inhibition”. Besides, in the series on murine model of myeloma, the “cytotoxic effect within the bone marrow” value is listed as “evidence of a cytotoxic effect within the bone marrow” and the “effect on tumor growth / tumor burden” value is “no effect on tumor growth was demonstrated”.
On to `O=P(O)(O)C(O)(Cc1cnc2ccccn12)P(=O)(O)O` [compound A, 1-hydroxy-2-(imidazo[1,2-a]pyridin-3-yl)ethane-1,1-bisphosphonic acid], for which the “inhibition of the increase” value in series [1] is recorded as “significantly inhibited”. Further, the “cell proliferation inhibitory ratio” value in series [3] (100 μM, 4 days incubation, ARH-77) is 84.2%. In addition, the “inhibition of ARH-77 cell proliferation” value in series [3] (0.3 to 1000 μM, 4 days) is listed as “dose-dependent manner”. Besides, the “bone mineral density of lumbar vertebrae” value in series [4] (3 mg/kg oral once a day for 6 days, DXA method, mice with paralysis in hind limbs) is recorded as 24.7 ± 0.9 mg/cm^2. The “lumbar bone mineral density compared with solvent group” value in series [4] (oral administration (6 days 3 mg/kg; 14 days 0.03, 0.3, 3 mg/kg)) is recorded as “higher bone mineral density than the solvent group”. Further, the “Dpyr level relative to level before the administration” value in series [5] (setting [7]) is “about 60%”. For the same compound, the “M protein (IgD)” value was determined as 11.6 mg/dL in series [5] (3 mg oral once a day, after 2 weeks); 9.8 mg/dL in series [5] (3 mg oral once a day, after 4 weeks); 7.7 mg/dL in series [5] (setting [7]); 5.9 mg/dL in series [5] (3 mg oral once a day, after 20 weeks); 25.8 mg/dL in series [5] (before administration). Also, in series [6] (6 mg oral once a day for 24 weeks, 6 patients), the “side effects related to the compound” value was “No side effect”. Besides, the “systemic bone salt mass, change ratio to the data before the administration” value is 0.61% in series [6] (6 mg oral once a day, after 12 weeks) and 1.18% in series [6] (setting [8]). Besides, the “narcotic score (analgesic type × administration frequency)” value in series [6] (setting [8]) is 0.60±1.342; in series [6] (before the administration) it was 1.67±3.615. Moreover, the “EORTC questionnaire on QOL” value in series [6] (6 mg oral once a day, before vs after 24 weeks) is “improvement was observed in pain, fatigue, shortness of breath, inappetence, constipation, economic conditions”. For the same compound, in series [6] (6 mg oral once a day, one of the patients), the “bone lesions in bone radiographs” value is reported as “obvious amelioration in bone lesions”.
